One may read the IC50 as the midpoint of a concentration-inhibition curve.

For 29 molecules, IC50 results are on record in US8614201B2 (Janssen Pharmaceutica NV, priority 2009, dated 2013).

The test deals with Human TRPA1 (Homo sapiens, UniProt O75762). Kind of test: Assay 1: In vitro cellular testing of TRPA1 modulation (CHO-TREx, Fluo-3 calcium fluorescence, AITC agonist). It is filed as cell-based. Also noted: expressed in transfected cells; host or cells: CHO-TREx cells (Invitrogen), vector pcDNA4/TO. The conditions noted are these: CHO-TREx cells expressing human TRPA1; Fluo-3 fluorescence (FLIPR/Tetra); agonist 15 μM allyl isothiocyanate (AITC); 30 minute antagonist incubation. In outline: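 Tetracycline-induced CHO-TREx cells stably expressing human TRPA1, loaded with 4 μM Fluo-3 AM, preincubated 30 min with compound (serial dilution typically from 10 μM, three-fold steps) in HEPES saline pH 7.4. Fluorescence change over 3 min after 15 μM AITC; IC50 from Hill fit versus no-antagonist and 10 μM ruthenium red controls.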
Sequence of Human TRPA1 (O75762 whole entry): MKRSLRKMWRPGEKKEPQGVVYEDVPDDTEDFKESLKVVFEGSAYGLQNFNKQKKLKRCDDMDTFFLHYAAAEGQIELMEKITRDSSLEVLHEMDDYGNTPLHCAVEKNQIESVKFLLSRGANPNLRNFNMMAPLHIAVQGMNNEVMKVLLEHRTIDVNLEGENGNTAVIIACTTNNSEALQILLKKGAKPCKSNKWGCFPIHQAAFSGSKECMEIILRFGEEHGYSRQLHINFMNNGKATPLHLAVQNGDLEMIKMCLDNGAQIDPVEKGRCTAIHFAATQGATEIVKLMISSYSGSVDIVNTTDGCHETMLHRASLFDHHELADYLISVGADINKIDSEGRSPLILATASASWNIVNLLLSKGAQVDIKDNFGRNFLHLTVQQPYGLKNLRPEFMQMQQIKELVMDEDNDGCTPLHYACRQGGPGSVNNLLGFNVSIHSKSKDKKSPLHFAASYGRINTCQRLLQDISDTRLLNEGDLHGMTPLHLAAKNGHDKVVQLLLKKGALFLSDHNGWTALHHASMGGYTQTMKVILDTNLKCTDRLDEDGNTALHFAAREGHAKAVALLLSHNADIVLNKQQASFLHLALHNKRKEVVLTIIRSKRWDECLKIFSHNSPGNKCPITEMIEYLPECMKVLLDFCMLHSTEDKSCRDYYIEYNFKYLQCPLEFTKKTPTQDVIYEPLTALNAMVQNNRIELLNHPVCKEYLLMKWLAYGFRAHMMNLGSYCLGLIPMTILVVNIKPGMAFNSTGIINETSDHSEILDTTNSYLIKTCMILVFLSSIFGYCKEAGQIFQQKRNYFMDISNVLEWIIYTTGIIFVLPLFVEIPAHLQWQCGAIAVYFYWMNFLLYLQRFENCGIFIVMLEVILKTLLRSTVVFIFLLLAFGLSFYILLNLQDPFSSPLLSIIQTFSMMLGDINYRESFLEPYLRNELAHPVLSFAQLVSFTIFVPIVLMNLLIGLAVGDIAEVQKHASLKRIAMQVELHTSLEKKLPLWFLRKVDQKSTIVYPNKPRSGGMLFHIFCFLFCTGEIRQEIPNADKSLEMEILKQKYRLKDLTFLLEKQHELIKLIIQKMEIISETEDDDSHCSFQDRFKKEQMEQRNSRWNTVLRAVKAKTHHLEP
Take `CC(C)CN1CCN(c2nc(CNC(=O)[C@@H]3CC(F)(F)CN3S(=O)(=O)c3ccc(Cl)s3)cc(-c3ccc(C(F)(F)F)cc3)n2)CC1` [Example 57, 1-(5-Chloro-thiophene-2-sulfonyl)-4,4-difluoro-pyrrolidine-2S-carboxylic acid [2-(4-isobutyl-piperazin-1-yl)-6-(4-trifluoromethyl-phenyl)-pyrimidin-4-ylmethyl]-amide]: the IC50 came to 0.194 µM.

On to `O=C(NCc1cc(-c2ccc(C(F)(F)F)cc2)nc(OCC(F)(F)F)n1)[C@@H]1CCCN1S(=O)(=O)c1ccc(Cl)s1` [Example 58, 1-(5-Chloro-thiophene-2-sulfonyl)-pyrrolidine-2S-carboxylic acid [2-(2,2,2-trifluoro-ethoxy)-6-(4-trifluoromethyl-phenyl)-pyrimidin-4-ylmethyl]-amide], for which the IC50 stood at 0.005 µM.

Consider `CN(C)c1nc(CNC(=O)[C@@H]2CC(F)(F)CN2S(=O)(=O)c2ccc(Cl)s2)cc(-c2ccc(C(F)(F)F)cc2)n1` [Example 59], for which the IC50 stood at 0.081 µM.

On to `CC1CCCN1c1nc(CNC(=O)[C@@H]2CC(F)(F)CN2S(=O)(=O)c2ccc(Cl)s2)cc(-c2ccc(C(F)(F)F)cc2)n1` (stereo partly drawn) [Example 60, 1-(5-Chloro-thiophene-2-sulfonyl)-4,4-difluoro-pyrrolidine-2S-carboxylic acid [2-(2-methyl-pyrrolidin-1-yl)-6-(4-trifluoromethyl-phenyl)-pyrimidin-4-ylmethyl]-amide], for which the IC50 came out at 6.17 µM.

Consider `O=C(NCc1cc(-c2ccc(C(F)(F)F)cc2)nc(OCC(F)(F)F)n1)[C@@H]1CC(F)(F)CN1S(=O)(=O)c1ccc(Cl)s1` [Example 61, 1-(5-Chloro-thiophene-2-sulfonyl)-4,4-difluoro-pyrrolidine-2S-carboxylic acid [2-(2,2,2-trifluoro-ethoxy)-6-(4-trifluoromethyl-phenyl)-pyrimidin-4-ylmethyl]-amide], for which the IC50 was determined as 0.105 µM.

`O=C(NCc1cc(-c2ccc(C(F)(F)F)cc2)nc(OCCN2CCCC2)n1)[C@@H]1CCCN1S(=O)(=O)c1ccc(Cl)s1` [Example 62, 1-(5-Chloro-thiophene-2-sulfonyl)-pyrrolidine-2S-carboxylic acid [2-(2-pyrrolidin-1-yl-ethoxy)-6-(4-trifluoromethyl-phenyl)-pyrimidin-4-ylmethyl]-amide]: the IC50 turned out to be 3.21 µM.

As for `O=C(NCc1cc(-c2ccc(C(F)(F)F)cc2)nc(OCCN2CCCCC2)n1)[C@@H]1CCCN1S(=O)(=O)c1ccc(Cl)s1` [Example 63, 1-(5-Chloro-thiophene-2-sulfonyl)-pyrrolidine-2S-carboxylic acid [2-(2-piperidin-1-yl-ethoxy)-6-(4-trifluoromethyl-phenyl)-pyrimidin-4-ylmethyl]-amide], the IC50 is 0.078 µM.

On to `O=C(NCc1cc(-c2ccc(C(F)(F)F)cc2)nc(OCCN2CCOCC2)n1)[C@@H]1CCCN1S(=O)(=O)c1ccc(Cl)s1` [Example 64, 1-(5-Chloro-thiophene-2-sulfonyl)-pyrrolidine-2S-carboxylic acid [2-(2-morpholin-4-yl-ethoxy)-6-(4-trifluoromethyl-phenyl)-pyrimidin-4-ylmethyl]-amide], for which the IC50 turned out to be 0.234 µM.

As for `O=C(NCc1cccc(-c2ccc(C(F)(F)F)cc2)c1)[C@@H]1CCCN1S(=O)(=O)c1ccc(F)cc1` [Example 65, 1-(4-Fluorobenzenesulfonyl)-pyrrolidine-2S-carboxylic acid (4′-trifluoromethylbiphenyl-3-ylmethyl)-amide], the IC50 is 0.015 µM.

On to `O=C(NCc1cccc(-c2cccc(C(F)(F)F)c2)c1)[C@@H]1CCCN1S(=O)(=O)c1ccc(F)cc1` [Example 66, 1-(4-Fluorobenzenesulfonyl)-pyrrolidine-2S-carboxylic acid (3′-trifluoromethylbiphenyl-3-ylmethyl)-amide], for which the IC50 was 0.253 µM.

Regarding `O=C(NCc1cccc(-c2ccccc2C(F)(F)F)c1)[C@@H]1CCCN1S(=O)(=O)c1ccc(F)cc1` [Example 67, 1-(4-Fluorobenzenesulfonyl)-pyrrolidine-2S-carboxylic acid (2′-trifluoromethylbiphenyl-3-ylmethyl)-amide], the IC50 amounted to 0.515 µM.

As to `O=C(NCc1cccc(-c2ccc(OC(F)(F)F)cc2)c1)[C@@H]1CCCN1S(=O)(=O)c1ccc(F)cc1` [Example 68, 1-(4-Fluorobenzenesulfonyl)-pyrrolidine-2S-carboxylic acid (4′-trifluoromethoxybiphenyl-3-ylmethyl)-amide], the IC50 was 0.026 µM.

For the molecule `O=C(NCc1cccc(-c2cccc(OC(F)(F)F)c2)c1)[C@@H]1CCCN1S(=O)(=O)c1ccc(F)cc1` [Example 69, 1-(4-Fluorobenzenesulfonyl)-pyrrolidine-2S-carboxylic acid (3′-trifluoromethoxybiphenyl-3-ylmethyl)-amide], the IC50 was determined as 0.181 µM.

With `O=C(NCc1cccc(-c2ccccc2OC(F)(F)F)c1)[C@@H]1CCCN1S(=O)(=O)c1ccc(F)cc1` [Example 70, 1-(4-Fluorobenzenesulfonyl)-pyrrolidine-2S-carboxylic acid (2′-trifluoromethoxybiphenyl-3-ylmethyl)-amide], the IC50 was 0.746 µM.

For `O=C(NCc1cccc(-c2ccc(C(F)(F)F)c(F)c2)c1)[C@@H]1CCCN1S(=O)(=O)c1ccc(F)cc1` [Example 71, 1-(4-Fluorobenzenesulfonyl)-pyrrolidine-2S-carboxylic acid (3′-fluoro-4′-trifluoromethylbiphenyl-3-ylmethyl)-amide], the IC50 was 0.014 µM.

Consider `O=C(NCc1cccc(-c2ccc(C(F)(F)F)c(Cl)c2)c1)[C@@H]1CCCN1S(=O)(=O)c1ccc(F)cc1` [Example 72, 1-(4-Fluoro-benzenesulfonyl)-pyrrolidine-2S-carboxylic acid (3′-chloro-4′-trifluoromethyl-biphenyl-3-ylmethyl)-amide], for which the IC50 worked out at 0.017 µM.

Take `O=C(NCc1cccc(-c2ccc(OC(F)(F)F)c(F)c2)c1)[C@@H]1CCCN1S(=O)(=O)c1ccc(F)cc1` [Example 73, 1-(4-Fluorobenzenesulfonyl)-pyrrolidine-2S-carboxylic acid (3′-fluoro-4′-trifluoromethoxybiphenyl-3-ylmethyl)-amide]: the concentration for half-maximal inhibition (IC50) came out at 0.004 µM.

Consider `O=C(NCc1cccc(-c2cc(F)c(OC(F)F)c(F)c2)c1)[C@@H]1CCCN1S(=O)(=O)c1ccc(F)cc1` [Example 74, 1-(4-Fluorobenzenesulfonyl)-pyrrolidine-2S-carboxylic acid (4′-difluoromethoxy-3′,5′-difluorobiphenyl-3-ylmethyl)-amide], for which the IC50 was 0.017 µM.

Regarding `CS(=O)(=O)c1ccc(-c2cccc(CNC(=O)[C@@H]3CCCN3S(=O)(=O)c3ccc(F)cc3)c2)cc1` [Example 75, 1-(4-Fluorobenzenesulfonyl)-pyrrolidine-2S-carboxylic acid (4′-methanesulfonylbiphenyl-3-ylmethyl)-amide], the IC50 amounted to 0.771 µM.

With `O=C(NCc1cccc(-c2ccc([N+](=O)[O-])cc2)c1)[C@@H]1CCCN1S(=O)(=O)c1ccc(F)cc1` [Example 76, 1-(4-Fluorobenzenesulfonyl)-pyrrolidine-2S-carboxylic acid (4′-nitrobiphenyl-3-ylmethyl)-amide], the IC50 was 0.024 µM.

With `O=C(NCc1cccc(-c2ccc(Br)cc2)c1)[C@@H]1CCCN1S(=O)(=O)c1ccc(F)cc1` [Example 77, 1-(4-Fluoro-benzenesulfonyl)-pyrrolidine-2S-carboxylic acid (4′-bromo-biphenyl-3-ylmethyl)-amide], the IC50 was found to be 0.059 µM.

For `NS(=O)(=O)c1ccc(-c2cccc(CNC(=O)[C@@H]3CCCN3S(=O)(=O)c3ccc(F)cc3)c2)cc1` [Example 78, 1-(4-Fluorobenzenesulfonyl)-pyrrolidine-2S-carboxylic acid (4′-sulfamoyl-biphenyl-3-ylmethyl)-amide], the IC50 was 6.05 µM.

Turning to `Cc1ccc(-c2cccc(CNC(=O)[C@@H]3CCCN3S(=O)(=O)c3ccc(F)cc3)c2)cc1` [Example 79, 1-(4-Fluoro-benzenesulfonyl)-pyrrolidine-2S-carboxylic acid (4′-methyl-biphenyl-3-ylmethyl)-amide], the IC50 worked out at 0.137 µM.

On to `COc1ccc(-c2cccc(CNC(=O)[C@@H]3CCCN3S(=O)(=O)c3ccc(F)cc3)c2)cc1` [Example 80, 1-(4-Fluorobenzenesulfonyl)-pyrrolidine-2S-carboxylic acid (4′-methoxybiphenyl-3-ylmethyl)-amide], for which the IC50 was found to be 0.41 µM.

For the molecule `O=C(NCc1cccc(-c2ccc(OCC(F)(F)F)cc2)c1)[C@@H]1CCCN1S(=O)(=O)c1ccc(F)cc1` [Example 81, 1-(4-Fluorobenzenesulfonyl)-pyrrolidine-2S-carboxylic acid [4′-(2,2,2-trifluoroethoxy)-biphenyl-3-ylmethyl]-amide], the half-maximal inhibitory concentration (IC50) is 0.093 µM.

Consider `CSc1ccc(-c2cccc(CNC(=O)[C@@H]3CCCN3S(=O)(=O)c3ccc(F)cc3)c2)cc1` [Example 82, 1-(4-Fluoro-benzenesulfonyl)-pyrrolidine-2S-carboxylic acid (4′-methylsulfanyl-biphenyl-3-ylmethyl)-amide], for which the IC50 was determined as 0.05 µM.

As for `O=C(NCc1cccc(-c2ccc(Cl)nc2)c1)[C@@H]1CCCN1S(=O)(=O)c1ccc(F)cc1` [Example 83, 1-(4-Fluoro-benzenesulfonyl)-pyrrolidine-2S-carboxylic acid 3-(6-chloro-pyridin-3-yl)-benzylamide], the IC50 came out at 0.073 µM.

Regarding `COc1ccc(-c2cccc(CNC(=O)[C@@H]3CCCN3S(=O)(=O)c3ccc(F)cc3)c2)cn1` [Example 84, 1-(4-Fluorobenzenesulfonyl)-pyrrolidine-2S-carboxylic acid 3-(6-methoxypyridin-3-yl)-benzylamide], the IC50 is 0.34 µM.

On to `NC(=O)c1ccc(-c2cccc(CNC(=O)[C@@H]3CCCN3S(=O)(=O)c3ccc(F)cc3)c2)cc1` [Example 85, 1-(4-Fluorobenzenesulfonyl)-pyrrolidine-2S-carboxylic acid (4′-carbamoylbiphenyl-3-ylmethyl)-amide], for which the IC50 worked out at 14.1 µM.
